Laboratory results: patent US7511041B2, “Fused azole-pyrimidine derivatives” (Bayer Pharmaceuticals Corporation, priority 2002, dated 2009)

Legend:
[1] = biological target: T1, Recombinant human PI3Kγ (full length human PI3K p110γ) (Homo sapiens, UniProt P48736); test: Kinase assay of PI3Kγ (solid-phase lipid kinase assay); format: biochemical; settings: Table 1, isozyme not given; read-out: in vitro
T1 construct: full length human PI3K p110γ fused with a His6-tag at the C-terminus; His6 (C); purchased ALEXIS BIOCHEMICALS #201-055-C010; host or cells: S. frugiperda 9 insect cells
T1 sequence (P48736 whole entry, the tested form may be a part): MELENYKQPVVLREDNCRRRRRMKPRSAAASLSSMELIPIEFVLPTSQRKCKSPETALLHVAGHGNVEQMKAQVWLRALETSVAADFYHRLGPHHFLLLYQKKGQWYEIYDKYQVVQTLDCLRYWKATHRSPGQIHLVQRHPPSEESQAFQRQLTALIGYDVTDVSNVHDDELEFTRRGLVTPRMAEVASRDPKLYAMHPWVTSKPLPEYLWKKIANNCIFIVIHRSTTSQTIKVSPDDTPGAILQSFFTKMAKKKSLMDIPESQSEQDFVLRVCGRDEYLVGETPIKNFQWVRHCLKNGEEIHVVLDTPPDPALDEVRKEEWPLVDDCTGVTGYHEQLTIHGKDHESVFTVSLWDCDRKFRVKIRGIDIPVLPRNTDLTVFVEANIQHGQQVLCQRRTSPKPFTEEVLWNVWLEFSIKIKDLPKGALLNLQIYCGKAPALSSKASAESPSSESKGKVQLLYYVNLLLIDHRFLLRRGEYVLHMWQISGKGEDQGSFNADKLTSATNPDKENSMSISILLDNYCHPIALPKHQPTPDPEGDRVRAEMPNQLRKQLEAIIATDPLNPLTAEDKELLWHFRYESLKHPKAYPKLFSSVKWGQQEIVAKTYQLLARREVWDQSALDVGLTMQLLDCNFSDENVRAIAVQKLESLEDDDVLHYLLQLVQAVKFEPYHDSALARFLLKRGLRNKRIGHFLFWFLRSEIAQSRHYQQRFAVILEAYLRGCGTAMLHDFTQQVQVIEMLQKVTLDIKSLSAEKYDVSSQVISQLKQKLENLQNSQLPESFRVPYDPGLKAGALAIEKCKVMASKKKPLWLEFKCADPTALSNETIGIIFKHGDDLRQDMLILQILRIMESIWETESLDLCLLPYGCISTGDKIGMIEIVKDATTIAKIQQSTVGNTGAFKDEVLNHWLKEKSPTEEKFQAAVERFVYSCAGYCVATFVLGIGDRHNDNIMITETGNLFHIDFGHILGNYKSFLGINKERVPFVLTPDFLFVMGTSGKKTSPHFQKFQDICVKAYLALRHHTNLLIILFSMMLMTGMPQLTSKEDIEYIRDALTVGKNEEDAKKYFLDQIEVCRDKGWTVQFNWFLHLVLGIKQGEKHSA
From the text: [Determination of IC50 Values of Compounds in Kinase Assay of PI3Kγ]
Chemicals and Assay Materials
LABORATORIES (Toronto, Canada). Recombinant human PI3Kγ (full length human PI3K p110γ fused with a His6-tag at the C-terminus expressed in S. frugiperda 9 insect cells) was obtained from ALEXIS BIOCHEMICALS (#201-055-C010; San Diego, Calif.). […] BIOTECH (Buckinghamshire, UK) and ROCHE DIAGNOSTICS (Mannheim, Germany), respectively. Scintillation cocktails and MicroScint PS™ were purchased from PACKARD (Meriden, Conn.). Maxisorp™ plates were purchased from NALGE NUNC INTERNATIONAL K.K. (Tokyo, Japan). All other chemicals not further specified were from WAKO PURE CHEMICALS (Osaka, Japan).
Solid-Phase Lipid Kinase Assay
The plates were subsequently air-dried by incubation for at least 2 hours in a fume hood. The reaction was set up by mixing 25 μl/well of assay buffer 2× (100 mM MOPSO/NaOH, 0.2 M NaCl, pH 7.0, 8 mM MgCl2, 2 mg/ml BSA (fatty acid-free)) and 50 ng/well PI3Kγ in the lipid pre-coated plate and 10× test compounds were added in 2% DMSO. The reaction was started by adding 20 μl/well of ATP mix (final 10 μM ATP; 0.05 μCi/well [γ^33P]ATP). After incubation at RT for 2 hours, the reaction was terminated by adding 50 μl/well stop solution (50 mM EDTA, pH 8.0). The plate was then washed twice with Tris-buffered saline (TBS, pH 7.4). MicroScint PS™ (PACKARD) scintillation mix was added at 100 μl/well, and radioactivity was counted by using a TopCount™ (PACKARD) scintillation counter.
The inhibition percent at each concentration of compound was calculated, and IC50 values were determined from the inhibition of curve.

Row | IC50 [1] | melting point | SMILES
1 | 100 to 500 nM | 195 to 196 °C | O/C(=C\C1=Nc2c(OCCN3CCOCC3)cccc2C2=NCCN12)c1cccnc1 [Example 1-84]
2 | 100 to 500 nM | 282 °C | O/C(=C\C1=Nc2cc(N3CCOCC3)ccc2C2=NCCN12)c1cccnc1 [Example 1-94]
3 | < 100 nM | 269 °C (dec.) | CC(=O)Nc1ccc(/C(O)=C/C2=Nc3cc(N4CCOCC4)ccc3C3=NCCN23)cn1 [Example 1-96]
4 | < 100 nM | 337 °C (dec.) | O/C(=C\C1=Nc2cc(N3CCOCC3)ccc2C2=NCCN12)c1cncc(O)c1 [Example 1-98]
5 | < 100 nM | 232 °C | O/C(=C\C1=Nc2cc(N3CCOCC3)ccc2C2=NCCN12)c1ccc2[nH]cnc2c1 [Example 1-100]
6 | 100 to 500 nM | 238 °C (dec.) | CC(=O)Nc1ccc(/C(O)=C/C2=Nc3cc(N4CCCC(O)C4)ccc3C3=NCCN23)cn1.Cl (stereo not drawn) [Example 1-102]
7 | 100 to 500 nM | 288 °C | CN1CCN(c2ccc3c(c2)N=C(/C=C(\O)c2cccnc2)N2CCN=C32)CC1.Cl [Example 1-104]
8 | 100 to 500 nM | 292 °C (dec.) | CC(=O)Nc1ccc(/C(O)=C/C2=Nc3cc(N4CCN(C)CC4)ccc3C3=NCCN23)cn1 [Example 1-105]
9 | < 100 nM | 207 °C | CN1CCN(c2ccc3c(c2)N=C(/C=C(\O)c2ccc4[nH]cnc4c2)N2CCN=C32)CC1 [Example 1-107]
10 | 100 to 500 nM | > 300 °C | CN1CCN(c2ccc3c(c2)N=C(/C=C(\O)c2ccc4[nH]cnc4c2)N2CCN=C32)CC1.Cl [Example 1-108]
11 | 100 to 500 nM | 231 °C (dec.) | CN(CCO)c1ccc2c(c1)N=C(/C=C(\O)c1ccc3[nH]cnc3c1)N1CCN=C21.Cl [Example 1-110]
12 | 100 to 500 nM | 204 °C | O/C(=C\C1=Nc2cc(CN3CCOCC3)ccc2C2=NCCN12)c1cccnc1 [Example 1-111]
13 | 100 to 500 nM | 245 °C | CC(=O)Nc1ccc(/C(O)=C/C2=Nc3cc(CN4CCOCC4)ccc3C3=NCCN23)cn1 [Example 1-113]
14 | 100 to 500 nM | 219 °C | O/C(=C\C1=Nc2cc(CN3CCOCC3)ccc2C2=NCCN12)c1ccc2[nH]cnc2c1 [Example 1-115]
15 | 100 to 500 nM | 226 °C | O/C(=C\C1=Nc2cc(Cl)ccc2C2=NCCN12)c1cccnc1 [Example 1-116]
16 | 100 to 500 nM | 233 °C | Cl.O/C(=C\C1=Nc2cc(Br)ccc2C2=NCCN12)c1cccnc1 [Example 1-118]
17 | 100 to 500 nM | 224 °C | Cc1ccc2c(c1)N=C(/C=C(\O)c1cccnc1)N1CCN=C21 [Example 1-119]
18 | 100 to 500 nM | 302 to 303 °C | O/C(=C\C1=Nc2ccc(O)cc2C2=NCCN12)c1cccnc1 [Example 1-124]
19 | < 100 nM | > 300 °C | Cl.O/C(=C\C1=Nc2ccc(O)cc2C2=NCCN12)c1cccnc1 [Example 1-125]
20 | 100 to 500 nM | 212 °C | Cc1ccc2c(c1)C1=NCCN1C(/C=C(\O)c1cccnc1)=N2 [Example 1-131]
21 | 100 to 500 nM | > 300 °C | CC(=O)Nc1ccc(/C(O)=C/C2=Nc3ccccc3C3=NCCN23)cc1 [Example 1-133]
22 | 100 to 500 nM | 217 to 219 °C | Cc1ccc(/C(O)=C/C2=Nc3ccccc3C3=NCCN23)cn1 [Example 1-136]
23 | < 100 nM | 327 °C | CC(=O)Nc1ccc(/C(O)=C/C2=Nc3ccccc3C3=NCCN23)cn1.Cl [Example 1-138]
24 | < 100 nM | 232 to 237 °C | CNc1ccc(/C(O)=C/C2=Nc3ccccc3C3=NCCN23)cn1 [Example 1-139]
25 | 100 to 500 nM | 197 °C | CCCNc1ccc(/C(O)=C/C2=Nc3ccccc3C3=NCCN23)cn1 [Example 1-140]

The next lines start with the molecule.

Row | SMILES | IC50 [1] | melting point
26 | CN(C)CCOc1cccc2c1N=C(/C=C(\O)c1cccnc1)N1CCN=C21 [Example 1-86] | 100 to 500 nM | 186 to 187 °C
27 | CN(C)CCCOc1cccc2c1N=C(/C=C(\O)c1cccnc1)N1CCN=C21 [Example 1-87] | 100 to 500 nM | 235 °C (dec.)
28 | O/C(=C\C1=Nc2c(OCC3CC3)cccc2C2=NCCN12)c1cccnc1 [Example 1-88] | 100 to 500 nM | 203 °C (dec.)
29 | CC(C)(C)OC(=O)COc1cccc2c1N=C(/C=C(\O)c1cccnc1)N1CCN=C21.Cl [Example 1-90] | < 100 nM | 222 to 223 °C
30 | OCCOc1cccc2c1N=C(/C=C(\O)c1cccnc1)N1CCN=C21 [Example 1-91] | 100 to 500 nM | 211 to 212 °C
31 | OCCCOc1cccc2c1N=C(/C=C(\O)c1cccnc1)N1CCN=C21 [Example 1-92] | < 100 nM | 203 to 205 °C
32 | CC(=O)Oc1cccc2c1N=C(/C=C(\O)c1cccnc1)N1CCN=C21 [Example 1-93] | 100 to 500 nM | 225 to 226 °C
33 | O/C(=C\C1=Nc2cc(C(F)(F)F)ccc2C2=NCCN12)c1cccnc1 [Example 1-121] | 500 to 2000 nM | 264 °C
34 | Cl.O/C(=C\C1=Nc2cc(C(F)(F)F)ccc2C2=NCCN12)c1cccnc1 [Example 1-122] | 100 to 500 nM | 321 °C
35 | COc1ccc2c(c1)C1=NCCN1C(/C=C(\O)c1cccnc1)=N2 [Example 1-126] | 100 to 500 nM | 199 °C
36 | Cl.NCC(=O)Oc1ccc2c(c1)C1=NCCN1C(/C=C(\O)c1cccnc1)=N2 [Example 1-128] | < 100 nM | > 300 °C
37 | Cl.O/C(=C\C1=Nc2ccc(Br)cc2C2=NCCN12)c1cccnc1 [Example 1-129] | 100 to 500 nM | > 300 °C
38 | O/C(=C\C1=Nc2ccccc2C2=NCCN12)c1cccnc1 [Example 1-134] | 100 to 500 nM | 202 °C
39 | O/C(=C\C1=Nc2ccccc2C2=NCCN12)c1cnccn1 [Example 1-141] | 100 to 500 nM | 233 to 235 °C
40 | O/C(=C\C1=Nc2ccccc2C2=NCCN12)c1ccco1 [Example 1-143] | 100 to 500 nM | 192 °C
41 | O/C(=C\C1=Nc2ccccc2C2=NCCN12)c1ccoc1 [Example 1-145] | 100 to 500 nM | 155 to 156 °C
42 | O/C(=C\C1=Nc2ccccc2C2=NCCN12)c1cccs1 [Example 1-146] | < 100 nM | 193 °C
43 | O/C(=C\C1=Nc2ccccc2C2=NCCN12)c1ccsc1 [Example 1-148] | 100 to 500 nM | 182 to 183 °C
44 | Cl.O/C(=C\C1=Nc2ccccc2C2=NCCN12)c1ccsc1 [Example 1-149] | < 100 nM | > 300 °C
45 | O/C(=C\C1=Nc2ccccc2C2=NCCN12)c1ccc[nH]1 [Example 1-150] | 100 to 500 nM | 247 °C
46 | O/C(=C\C1=Nc2ccccc2C2=NCCN12)c1cc[nH]c1 [Example 1-151] | < 100 nM | 247 to 249 °C
47 | O/C(=C\C1=Nc2ccccc2C2=NCCN12)c1ccno1 [Example 1-152] | 100 to 500 nM | 148 °C
48 | O/C(=C\C1=Nc2ccccc2C2=NCCN12)c1nccs1 [Example 1-154] | < 100 nM | 208 to 210 °C
